Experimental findings from ChEMBL document CHEMBL1145498, “A systematic interaction map of validated kinase inhibitors with Ser/Thr kinases” (Proc Natl Acad Sci U S A, 2007) are described below.

Assay [1] has as its target Cyclin-dependent kinase 2 (Homo sapiens, UniProt P24941).
Assay [2] has as its target Serine/threonine-protein kinase RIO2 (Homo sapiens) (UniProt Q9BVS4).
Assay [3] has as its target T1, Serine/threonine-protein kinase 4 (Homo sapiens) (UniProt Q13043).
T1 sequence (whole entry): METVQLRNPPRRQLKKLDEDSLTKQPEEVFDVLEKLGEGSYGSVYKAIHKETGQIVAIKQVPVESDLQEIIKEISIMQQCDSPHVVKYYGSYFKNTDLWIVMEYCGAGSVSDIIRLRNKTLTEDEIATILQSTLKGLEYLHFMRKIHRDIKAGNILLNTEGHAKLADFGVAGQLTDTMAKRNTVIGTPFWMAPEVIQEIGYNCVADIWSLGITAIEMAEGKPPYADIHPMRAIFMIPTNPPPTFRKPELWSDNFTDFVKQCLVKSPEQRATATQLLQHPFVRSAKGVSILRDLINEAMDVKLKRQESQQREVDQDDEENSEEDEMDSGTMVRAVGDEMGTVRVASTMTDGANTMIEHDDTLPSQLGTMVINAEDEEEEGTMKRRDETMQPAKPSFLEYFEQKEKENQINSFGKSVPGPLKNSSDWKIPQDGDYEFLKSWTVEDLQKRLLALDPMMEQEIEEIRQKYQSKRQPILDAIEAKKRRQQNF

For assay [4], the target named is T2, Calcium/calmodulin-dependent protein kinase type IV (Homo sapiens) (UniProt Q16566).
T2 sequence (whole entry): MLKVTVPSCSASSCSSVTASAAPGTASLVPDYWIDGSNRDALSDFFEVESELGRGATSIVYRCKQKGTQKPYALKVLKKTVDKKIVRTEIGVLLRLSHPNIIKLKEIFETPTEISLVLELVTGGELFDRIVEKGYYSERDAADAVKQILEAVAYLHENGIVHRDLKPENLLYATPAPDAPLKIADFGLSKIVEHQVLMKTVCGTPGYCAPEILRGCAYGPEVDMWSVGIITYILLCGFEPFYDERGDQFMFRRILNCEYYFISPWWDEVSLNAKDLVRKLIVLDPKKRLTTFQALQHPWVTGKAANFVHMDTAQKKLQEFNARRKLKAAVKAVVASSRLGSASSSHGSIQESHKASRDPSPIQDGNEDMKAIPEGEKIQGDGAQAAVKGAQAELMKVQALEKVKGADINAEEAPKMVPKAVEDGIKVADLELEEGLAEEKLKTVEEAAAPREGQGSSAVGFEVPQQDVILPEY

For assay [5], the target named is Serine/threonine-protein kinase PAK 6 (Homo sapiens) (UniProt Q9NQU5).
Assay [6] has as its target Mitogen-activated protein kinase 11 (Homo sapiens, UniProt Q15759).
Assay [7] addresses TRAF2 and NCK-interacting protein kinase (Homo sapiens) (UniProt Q9UKE5).
For assay [8], the target named is STE20-like serine/threonine-protein kinase (Homo sapiens) (UniProt Q9H2G2).
Assay [9] addresses Mitogen-activated protein kinase 3 (Homo sapiens, UniProt P27361).
Assay [10] concerns the target Calcium/calmodulin-dependent protein kinase type II subunit gamma (Homo sapiens) (UniProt Q13555).
In assay [11] the target is Calcium/calmodulin-dependent protein kinase type 1D (Homo sapiens) (UniProt Q8IU85).
The target in assay [12] is Serine/threonine-protein kinase 10 (Homo sapiens) (UniProt O94804).
Assay [13] deals with Serine/threonine-protein kinase pim-1 (Homo sapiens) (UniProt P11309).
The target in assay [14] is Dual specificity mitogen-activated protein kinase kinase 2 (Homo sapiens, UniProt P36507).
In assay [15] the target is Serine/threonine-protein kinase 38 (Homo sapiens) (UniProt Q15208).
The target of assay [16] is Serine/threonine-protein kinase 26 (Homo sapiens) (UniProt Q9P289).
Assay [17] concerns the target Serine/threonine-protein kinase Chk2 (Homo sapiens, UniProt O96017).
Assay [18] concerns the target T3, Serine/threonine-protein kinase Nek2 (Homo sapiens) (UniProt P51955).
T3 sequence (whole entry): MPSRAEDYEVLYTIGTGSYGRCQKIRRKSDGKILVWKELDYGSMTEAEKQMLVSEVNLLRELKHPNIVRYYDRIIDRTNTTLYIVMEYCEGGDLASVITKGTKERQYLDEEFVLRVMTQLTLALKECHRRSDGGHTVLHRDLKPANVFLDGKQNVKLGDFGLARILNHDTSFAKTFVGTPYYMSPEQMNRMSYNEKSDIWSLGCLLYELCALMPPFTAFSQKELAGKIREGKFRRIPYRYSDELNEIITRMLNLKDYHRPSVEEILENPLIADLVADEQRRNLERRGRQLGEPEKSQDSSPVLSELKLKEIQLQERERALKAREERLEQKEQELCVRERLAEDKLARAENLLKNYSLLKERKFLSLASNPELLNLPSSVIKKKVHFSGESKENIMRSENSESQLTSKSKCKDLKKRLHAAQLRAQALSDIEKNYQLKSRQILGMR

For assay [19], the target named is Serine/threonine-protein kinase pim-2 (Homo sapiens, UniProt Q9P1W9).
For assay [20], the target named is T4, Serine/threonine-protein kinase VRK3 (Homo sapiens) (UniProt Q8IV63).
T4 sequence (whole entry): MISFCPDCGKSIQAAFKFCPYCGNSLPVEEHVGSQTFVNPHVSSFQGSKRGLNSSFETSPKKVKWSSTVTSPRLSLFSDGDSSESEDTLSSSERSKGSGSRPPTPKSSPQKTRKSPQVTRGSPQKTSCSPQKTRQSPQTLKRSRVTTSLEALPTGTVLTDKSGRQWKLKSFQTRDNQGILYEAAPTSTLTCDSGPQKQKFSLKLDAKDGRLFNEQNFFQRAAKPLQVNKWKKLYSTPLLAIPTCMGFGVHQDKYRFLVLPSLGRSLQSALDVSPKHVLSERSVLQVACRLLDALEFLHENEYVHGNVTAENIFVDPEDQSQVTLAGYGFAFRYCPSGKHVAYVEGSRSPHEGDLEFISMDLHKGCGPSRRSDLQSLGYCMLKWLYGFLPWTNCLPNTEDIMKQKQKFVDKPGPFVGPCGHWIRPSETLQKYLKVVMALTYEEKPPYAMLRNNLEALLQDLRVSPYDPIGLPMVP

Chain of STE20-like serine/threonine-protein kinase (Homo sapiens) (Q9H2G2 whole entry, looked up): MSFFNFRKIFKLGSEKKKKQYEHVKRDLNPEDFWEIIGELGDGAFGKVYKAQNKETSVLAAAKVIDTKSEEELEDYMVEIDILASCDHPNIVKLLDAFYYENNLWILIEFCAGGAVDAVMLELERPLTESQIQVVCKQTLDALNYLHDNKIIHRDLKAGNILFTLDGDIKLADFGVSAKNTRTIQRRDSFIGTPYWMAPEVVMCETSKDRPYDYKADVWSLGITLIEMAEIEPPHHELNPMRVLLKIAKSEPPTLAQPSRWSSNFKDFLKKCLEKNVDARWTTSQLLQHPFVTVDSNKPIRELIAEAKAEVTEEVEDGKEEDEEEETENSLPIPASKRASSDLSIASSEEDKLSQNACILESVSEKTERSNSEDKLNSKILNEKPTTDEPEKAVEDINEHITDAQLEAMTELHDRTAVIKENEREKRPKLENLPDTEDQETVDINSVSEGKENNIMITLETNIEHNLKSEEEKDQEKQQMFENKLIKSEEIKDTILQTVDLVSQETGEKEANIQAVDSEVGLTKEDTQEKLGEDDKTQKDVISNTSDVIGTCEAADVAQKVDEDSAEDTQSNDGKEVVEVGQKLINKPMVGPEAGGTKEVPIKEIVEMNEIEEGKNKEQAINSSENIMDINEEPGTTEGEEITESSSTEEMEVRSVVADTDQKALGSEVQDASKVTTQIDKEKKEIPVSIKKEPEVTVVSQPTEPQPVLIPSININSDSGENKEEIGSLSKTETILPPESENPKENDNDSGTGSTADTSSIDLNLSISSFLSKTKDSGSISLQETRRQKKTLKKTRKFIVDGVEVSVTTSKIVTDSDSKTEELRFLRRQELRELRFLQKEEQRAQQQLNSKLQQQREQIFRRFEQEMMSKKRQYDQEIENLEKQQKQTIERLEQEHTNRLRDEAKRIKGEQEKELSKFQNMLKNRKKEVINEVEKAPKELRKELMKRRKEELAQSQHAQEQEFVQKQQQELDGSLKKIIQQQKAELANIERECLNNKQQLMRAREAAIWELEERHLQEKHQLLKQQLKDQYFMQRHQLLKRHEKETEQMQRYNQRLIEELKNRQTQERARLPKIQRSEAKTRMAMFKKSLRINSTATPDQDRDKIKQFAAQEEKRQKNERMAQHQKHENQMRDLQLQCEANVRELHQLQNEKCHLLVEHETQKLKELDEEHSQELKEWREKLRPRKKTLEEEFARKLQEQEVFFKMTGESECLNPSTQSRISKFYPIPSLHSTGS
Chain of Mitogen-activated protein kinase 11 (Q15759 whole entry): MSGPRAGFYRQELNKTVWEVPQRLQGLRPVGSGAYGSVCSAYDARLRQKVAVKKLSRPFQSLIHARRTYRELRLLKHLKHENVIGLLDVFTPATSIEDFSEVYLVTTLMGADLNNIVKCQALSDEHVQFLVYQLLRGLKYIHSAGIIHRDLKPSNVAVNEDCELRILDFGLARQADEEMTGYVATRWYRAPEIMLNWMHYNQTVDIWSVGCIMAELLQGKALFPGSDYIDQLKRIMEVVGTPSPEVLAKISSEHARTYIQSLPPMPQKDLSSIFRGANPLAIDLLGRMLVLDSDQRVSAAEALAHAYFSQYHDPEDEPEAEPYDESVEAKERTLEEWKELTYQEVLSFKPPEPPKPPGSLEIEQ
Chain of Mitogen-activated protein kinase 3 (P27361 whole entry): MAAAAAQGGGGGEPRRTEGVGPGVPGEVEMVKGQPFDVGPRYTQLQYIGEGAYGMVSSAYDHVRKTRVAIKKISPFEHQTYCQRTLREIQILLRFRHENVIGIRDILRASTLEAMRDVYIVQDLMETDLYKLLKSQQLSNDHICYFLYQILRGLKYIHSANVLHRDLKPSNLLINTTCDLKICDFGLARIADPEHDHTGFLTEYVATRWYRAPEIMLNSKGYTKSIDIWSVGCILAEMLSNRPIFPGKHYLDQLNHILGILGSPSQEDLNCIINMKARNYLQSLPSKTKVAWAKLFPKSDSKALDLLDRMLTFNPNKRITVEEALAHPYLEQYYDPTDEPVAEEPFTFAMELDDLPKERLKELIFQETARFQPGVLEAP
Chain of Serine/threonine-protein kinase Chk2 (O96017 whole entry): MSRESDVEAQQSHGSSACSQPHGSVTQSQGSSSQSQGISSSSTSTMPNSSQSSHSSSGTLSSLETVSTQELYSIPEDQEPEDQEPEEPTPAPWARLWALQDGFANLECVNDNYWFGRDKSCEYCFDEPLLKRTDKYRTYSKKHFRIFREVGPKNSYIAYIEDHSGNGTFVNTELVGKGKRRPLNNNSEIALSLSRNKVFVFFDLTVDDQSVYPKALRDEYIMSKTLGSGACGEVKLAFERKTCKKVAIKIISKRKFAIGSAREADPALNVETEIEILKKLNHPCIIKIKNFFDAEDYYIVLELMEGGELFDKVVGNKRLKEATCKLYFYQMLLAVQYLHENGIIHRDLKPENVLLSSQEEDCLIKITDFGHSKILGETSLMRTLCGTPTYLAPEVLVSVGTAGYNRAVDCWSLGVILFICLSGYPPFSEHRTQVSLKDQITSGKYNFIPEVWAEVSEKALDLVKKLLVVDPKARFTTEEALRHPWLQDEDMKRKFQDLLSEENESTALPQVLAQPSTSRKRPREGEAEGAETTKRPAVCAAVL
Chain of Dual specificity mitogen-activated protein kinase kinase 2 (P36507 whole entry): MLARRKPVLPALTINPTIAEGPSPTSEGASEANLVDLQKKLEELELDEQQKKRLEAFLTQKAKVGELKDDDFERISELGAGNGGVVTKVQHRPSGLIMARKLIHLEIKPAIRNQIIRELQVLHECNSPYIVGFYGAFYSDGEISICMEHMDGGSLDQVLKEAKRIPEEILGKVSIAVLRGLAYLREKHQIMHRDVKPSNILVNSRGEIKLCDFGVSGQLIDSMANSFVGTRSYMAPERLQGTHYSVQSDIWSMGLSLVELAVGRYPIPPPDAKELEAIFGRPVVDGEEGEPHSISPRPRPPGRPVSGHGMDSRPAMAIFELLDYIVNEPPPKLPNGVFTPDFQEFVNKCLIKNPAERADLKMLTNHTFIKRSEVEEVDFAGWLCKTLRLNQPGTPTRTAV
Chain of Calcium/calmodulin-dependent protein kinase type 1D (Homo sapiens) (Q8IU85 whole entry, looked up): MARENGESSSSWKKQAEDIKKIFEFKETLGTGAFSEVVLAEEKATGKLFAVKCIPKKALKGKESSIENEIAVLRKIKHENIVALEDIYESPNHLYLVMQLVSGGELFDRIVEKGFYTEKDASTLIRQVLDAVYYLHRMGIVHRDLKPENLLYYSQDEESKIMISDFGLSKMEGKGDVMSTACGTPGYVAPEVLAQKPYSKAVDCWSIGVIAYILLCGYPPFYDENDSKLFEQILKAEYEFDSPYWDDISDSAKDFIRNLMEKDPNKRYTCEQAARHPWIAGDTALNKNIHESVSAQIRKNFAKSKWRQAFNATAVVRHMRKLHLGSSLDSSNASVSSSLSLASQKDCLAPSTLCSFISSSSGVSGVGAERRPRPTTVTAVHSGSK
Chain of Serine/threonine-protein kinase RIO2 (Homo sapiens) (Q9BVS4 whole entry, looked up): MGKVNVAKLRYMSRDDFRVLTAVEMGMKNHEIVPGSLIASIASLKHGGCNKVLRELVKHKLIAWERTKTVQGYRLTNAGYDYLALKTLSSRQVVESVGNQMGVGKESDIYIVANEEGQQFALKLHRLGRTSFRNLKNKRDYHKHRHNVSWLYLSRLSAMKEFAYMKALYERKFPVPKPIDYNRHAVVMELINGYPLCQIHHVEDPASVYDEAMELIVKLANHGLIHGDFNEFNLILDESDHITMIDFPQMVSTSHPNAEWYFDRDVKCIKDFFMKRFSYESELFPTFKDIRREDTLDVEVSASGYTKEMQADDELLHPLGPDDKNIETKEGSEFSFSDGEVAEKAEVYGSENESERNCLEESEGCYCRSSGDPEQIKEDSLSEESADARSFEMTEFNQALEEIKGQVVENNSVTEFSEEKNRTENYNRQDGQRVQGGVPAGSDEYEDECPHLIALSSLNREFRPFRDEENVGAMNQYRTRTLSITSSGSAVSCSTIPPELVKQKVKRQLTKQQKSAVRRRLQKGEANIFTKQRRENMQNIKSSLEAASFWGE
Chain of Serine/threonine-protein kinase 38 (Homo sapiens) (Q15208 2-465 limits assumed): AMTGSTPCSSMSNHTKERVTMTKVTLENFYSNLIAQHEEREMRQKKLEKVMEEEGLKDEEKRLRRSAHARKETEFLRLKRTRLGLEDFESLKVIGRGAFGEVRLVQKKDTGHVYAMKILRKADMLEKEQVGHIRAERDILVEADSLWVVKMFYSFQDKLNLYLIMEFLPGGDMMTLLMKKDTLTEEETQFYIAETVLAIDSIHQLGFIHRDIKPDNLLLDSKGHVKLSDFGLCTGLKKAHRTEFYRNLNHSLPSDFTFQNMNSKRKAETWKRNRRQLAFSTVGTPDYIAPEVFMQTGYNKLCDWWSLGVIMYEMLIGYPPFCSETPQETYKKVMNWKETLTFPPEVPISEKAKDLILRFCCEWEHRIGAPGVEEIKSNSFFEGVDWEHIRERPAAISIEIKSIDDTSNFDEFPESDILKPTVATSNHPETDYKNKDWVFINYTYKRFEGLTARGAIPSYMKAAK
Chain of Serine/threonine-protein kinase pim-1 (Homo sapiens) (P11309 whole entry, looked up): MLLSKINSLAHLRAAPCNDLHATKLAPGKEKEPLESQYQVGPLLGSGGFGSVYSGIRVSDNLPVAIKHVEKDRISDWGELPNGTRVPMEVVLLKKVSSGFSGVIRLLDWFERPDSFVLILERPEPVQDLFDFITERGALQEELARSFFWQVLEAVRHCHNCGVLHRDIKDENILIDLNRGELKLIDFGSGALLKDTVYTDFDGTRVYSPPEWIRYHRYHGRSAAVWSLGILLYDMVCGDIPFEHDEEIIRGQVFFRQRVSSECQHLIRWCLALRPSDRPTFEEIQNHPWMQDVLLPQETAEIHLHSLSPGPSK
Chain of Serine/threonine-protein kinase pim-2 (Q9P1W9 whole entry, looked up): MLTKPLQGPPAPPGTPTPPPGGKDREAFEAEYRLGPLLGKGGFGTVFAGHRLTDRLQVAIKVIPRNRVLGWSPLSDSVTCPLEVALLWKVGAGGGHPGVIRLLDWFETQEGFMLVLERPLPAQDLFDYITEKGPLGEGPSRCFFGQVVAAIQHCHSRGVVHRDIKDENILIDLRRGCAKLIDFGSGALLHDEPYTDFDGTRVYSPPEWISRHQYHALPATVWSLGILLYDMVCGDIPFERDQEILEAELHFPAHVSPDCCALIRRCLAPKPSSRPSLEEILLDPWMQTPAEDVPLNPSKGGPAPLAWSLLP

With `O=C(O)c1cc(N(Cc2ccccc2O)Cc2cc(O)ccc2O)ccc1O` [LAVENDUSTIN A], the ΔTm in [1] was 1.3 °C; in assay [2] it was 0 °C; in assay [3] it was 0.5 °C; in assay [4] it was 0.5 °C; in [5], -0.3 °C; in assay [6], 0.3 °C. For the same compound, the ΔTm in assay [7] was 0 °C; in [8] it was -0.7 °C; in assay [9] it was 0.3 °C; in assay [10] it was -0.1 °C; in assay [11] it was 0.1 °C; in [12], 0.1 °C. Also, the ΔTm in [13] worked out at 1.1 °C; in [14], 0.5 °C; in assay [15], 0.2 °C; in [16] it was 0.4 °C; in assay [17], 0.8 °C; in assay [18], 1.3 °C. The ΔTm turned out to be 1.1 °C in assay [19] and 0.7 °C in assay [20].

On to `CC(C)(C)n1nc(-c2cccc3ccccc23)c2c(N)ncnc21`, for which the ΔTm in [1] is 0.1 °C; in assay [2], 0.4 °C; in assay [3], 3.2 °C; in assay [4] it was -0.1 °C; in assay [5] it was 0.3 °C; in [6], 2.9 °C. Moreover, the ΔTm in assay [7] is 4.5 °C; in [8], 6.1 °C; in [9] it was 0.8 °C; in assay [10], 0.2 °C; in assay [11], -0.3 °C; in assay [12], 4 °C. The ΔTm in assay [13] is -0.2 °C; in assay [14], 3.2 °C; in assay [15] it was 0.4 °C; in assay [16], 1.1 °C; in [17], 0.3 °C; in assay [18], -0.2 °C. The ΔTm was -0.2 °C in assay [19] and 0.2 °C in assay [20].

`N=C(N)NCCNS(=O)(=O)c1cccc2cnccc12`: the ΔTm in assay [1] is 0.3 °C; in assay [2] it was 1.5 °C; in assay [3], 0.4 °C; in [4] it was -0.3 °C; in [5], 0 °C; in [6], -0.3 °C. For the same compound, the ΔTm in [7] amounted to 0.1 °C; in assay [8] it was 0.3 °C; in assay [9], 0.1 °C; in [10] it was 0 °C; in [11], 0 °C; in [12], 0.7 °C. The ΔTm was -0.4 °C in assay [13]; -0.6 °C in assay [14]; 0.1 °C in assay [15]; 0.1 °C in assay [16]; 0.2 °C in assay [17]; 0.5 °C in assay [18]. Also, the ΔTm amounted to 0.6 °C in [19] and 0.3 °C in assay [20].

For the compound `CN(C)S(=O)(=O)c1ccc2c(c1)/C(=C/c1cc3c([nH]1)CCCC3)C(=O)N2`, the ΔTm in assay [1] was 2.3 °C; in assay [2], -6.4 °C; in [3], 8.7 °C; in assay [4], 2.6 °C; in assay [5], -4.4 °C; in assay [6], 1.1 °C. Besides, the ΔTm in assay [7] turned out to be 4.2 °C; in [8] it was 6.2 °C; in assay [9], 0.8 °C; in assay [10], 1.2 °C; in assay [11], 1.4 °C; in [12] it was 7.7 °C. The ΔTm in assay [13] is 0.5 °C; in assay [14], 7 °C; in assay [15], 2.2 °C; in [16], 1 °C; in assay [17] it was 4.7 °C; in assay [18], 2.8 °C. Further, the ΔTm came out at 0.4 °C in [19] and 1.5 °C in assay [20].

On to `Nc1cccc(-c2cc3c(Oc4cccc(O)c4)ncnc3[nH]2)c1`, for which the ΔTm in [1] was 0.9 °C; in assay [2], 2.4 °C; in assay [3], 5.1 °C; in [4], 0.2 °C; in assay [5], 1.3 °C; in [6], 5.4 °C. Besides, the ΔTm in [7] was -0.4 °C; in assay [8], 6.7 °C; in [9], 0 °C; in [10], 0.1 °C; in assay [11] it was 0.3 °C; in assay [12], 5.9 °C. Besides, the ΔTm in [13] was found to be 0.7 °C; in assay [14] it was 2.7 °C; in assay [15] it was 2.2 °C; in assay [16], 2.2 °C; in assay [17] it was 1.7 °C; in [18], 2.6 °C. Also, the ΔTm came to 0.8 °C in [19] and 2.2 °C in [20].

Take `Cc1ccc(NC(=O)c2cccc(N(C)C)c2)cc1NC(=O)c1ccc(O)cc1`: the ΔTm was 0.3 °C in [1]; 0.2 °C in assay [2]; 0 °C in assay [3]; 0 °C in assay [4]; 0.6 °C in assay [5]; 4.1 °C in assay [6]. Further, the ΔTm in assay [7] was 0.1 °C; in assay [8], 0.9 °C; in assay [9] it was 0.2 °C; in [10], 0.1 °C; in [11], 0.3 °C; in assay [12], 0.1 °C. In addition, the ΔTm in [13] was -0.3 °C; in assay [14] it was 0.4 °C; in [15] it was 0 °C; in [16] it was 1 °C; in assay [17], 0.9 °C; in assay [18], 0.3 °C. Also, the ΔTm in assay [19] was 0 °C; in assay [20] it was -0.1 °C.

On to `O=c1c2ccccc2[nH]c(=S)n1CCN1CCC(=C(c2ccc(F)cc2)c2ccc(F)cc2)CC1` [DIACYLGLYCEROL KINASE INHIBITOR II], for which the thermal shift (ΔTm) in [1] was 0.9 °C; in assay [2] it was 3.5 °C; in assay [3] it was 2 °C; in assay [4], 0.2 °C; in assay [5], -0.1 °C; in [6] it was 1.2 °C. Further, the ΔTm was 0 °C in assay [7]; 2.3 °C in assay [8]; 0.2 °C in assay [9]; -0.5 °C in assay [10]; 0.8 °C in [11]; 3.6 °C in assay [12]. In addition, the ΔTm worked out at 0 °C in assay [13]; 0.3 °C in assay [14]; 0.2 °C in [15]; 2.1 °C in assay [16]; 1.6 °C in assay [17]; 1.5 °C in [18]. Also, the values for the ΔTm in [19] and in assay [20] were 1.4 °C and -0.6 °C, respectively.
